According to patent US20030144347A1, “Method for treating autoimmune disease” (priority 2001, published 2003):

Experiments:
[1] = tested on: patient with rapid mood swings and severe intense itching; assay: Case report: patient with rapid mood swings and severe intense itching; format: in vivo, human; details: Example 19; 12.5 mg at bedtime increased weekly until 50 mg
Method: A patient presented with rapid mood swings and a complaint of severe intense itching from clothing tags and some clothing, which began over twenty years ago. They were begun on gabapenten which was increased to 300 mg qid. […] Their itching was unchanged. They were begun on Topamax 12.5 mg at bedtime which was increased weekly by 12.5 mg until 50 mg.

[2] = tested on: rodent models of epilepsy; details: several rodent models of epilepsy; cited from earlier work
[3] = tested on: patient suffering from pemphigus vulgaris; assay: Case reports: patients suffering from pemphigus vulgaris; format: in vivo, human
Method: A patient suffering from pemphigus vulgaris and taking 15 mg of chobetesol propionate per day began taking 15 mg per day of topiramate. The dose was increased to 45 mg in divided dosages over a three week period. […] This occurred and was maintained even after chobetesol propionate was reduced to 5 mg every 3 days, at 8 weeks from the initial dose of 15 mg per day. […] A patient suffering from permphigus vulgaris and taking 50 mg twice a day of immuran and 20 mg per day of prednisone began taking 15 mg per day of topiramate. The dose was increased to 45 mg per day in divided dosages over a three-week period. […] This occurred in spite of reducing the immuran to 50 mg and prednisone to 10 mg each day, which were their lowest dosages in two years. […] These improvements continued to be maintained at 20 weeks and Ig antibody was zero.

[4] = tested on: human epilepsy; details: clinical trials; cited from earlier work
[5] = tested on: patient suffering from multiple sclerosis; assay: Case reports: patients suffering from multiple sclerosis treated with topiramate; format: in vivo, human
Method: A patient suffering from multiple sclerosis was administered 15 mg per day of topiramate. The dosage was increased after 15 days to 30 mg per day. At 15 mg, the patient's involuntary stretch rigid response stopped and the patient was able to get out of bed without falling backward when their feet touched the floor for the first time in nine years.
The patient previously took trazadone 100 mg at bedtime, clonazepan 1 mg three times a day, citalapram 40 mg each morning, gabapentrin 600 mg four times a day, and synthroid 25 mcg per day for two years. They had refused steroids and interferon because of side effects.
The Topamax was increased to 15 mg at bedtime and they reported “no bad bladder accidents” and that their leg and foot cramps had disappeared. […] They were discharged on Topamax 15 mg at bedtime along with previous medications. The patient was much improved medically and emotionally.
The patient returned four weeks later walking with a cane, having worked “10 to 14 hours per day and exhausted from my move with little sleep during the past month”. They reported “insatiable itching all over my body wherever my clothes touch the skin” which […] unsuccessfully tried to treat with cetirizine. […] said […] felt “dizzy, weak, Charlie horses in arches of feet and toes, unable to stand for more than 10 minutes before starting to have gait problems, problems sleeping, having trouble mentally and urine leaking”. […] working diagnoses are Axis I Bipolar disorder, not otherwise specified Axis III multiple sclerosis. […]

[6] = tested on: patient suffering from diabetes, Type 1; assay: Case report: patient suffering from diabetes, Type 1; format: in vivo, human; details: Example 2
Method: A patient suffering from diabetes, Type 1, was administered 25 mg per day of topiramate for 10 days, which was then increased to 50 mg per day.

[7] = tested on: patient suffering from rheumatoid arthritis; assay: Case reports: patients suffering from rheumatoid arthritis; format: in vivo, human
Method: A patient suffering from rheumatoid arthritis was administered 25 mg per day of topiramate with an increase every 10 days by 25 mg until 25 mg, 3 times per day, was achieved. The patient previously took 3 or 4 tablets per day of lortab, seven 2.5 mg tablets of methotrexate once a week, 200 mg per day of minocycline and 10 mg per day of prednisone.
An adolescent patient suffering from rheumatoid arthritis began taking 15 mg per day of topiramate for one week, which was then increased by 15 mg weekly until 45 mg per day, in three divided dosages of 15 mg each, was reached. The patient previously took 3 to 5 mg of prednisone daily.
A patient suffering from rheumatoid arthritis with a positive rheumatic factor about 3 decades earlier, at which time they also experienced polyarthritis and Renaud's phenomena, was treated with prednisone 40 mg per day for six months and was then weaned off the prednisone after one year. In the ensuing years, psoriasis developed on both elbows which was worse in the winter. They were an avid golfer and experienced painful swelling and stiffness of both wrists and hands, especially the left, and back pain and stiffness. […] They were begun on Topamax 15 mg a day which was increased weekly by 15 mg until 45 mg per day was taken in divided doses.

[8] = tested on: patient suffering from psoriatic arthritis; assay: Case reports: patients suffering from psoriatic arthritis; format: in vivo, human
Method: A patient suffering from psoriatic arthritis began taking 15 mg per day of topiramate. […] When the dose was increased slightly to 25 mg twice a day, the patient realized they were experiencing minimal pain and resumed garden work using a rototiller for the first time in two years. These benefits have continued for more than five months at this dose. […] This has continued for more than ten months. A patient suffering from psoriatic arthritis began taking 25 mg per day of topiramate. The dosage was increased each week until […] was achieved. […] The patient was stabilized at 25 mg, twice a day, for convenience. Their benefits from topiramate have continued for almost five months.

[9] = Example 18, 15 mg at bedtime, two days later
[10] = Example 6, 25 mg per day, 4 weeks

CC1(C)O[C@@H]2[C@@H](CO[C@@]3(COS(N)(=O)=O)OC(C)(C)O[C@@H]23)O1 [topiramate, 2,3:4,5-bis-O-(1-methylethylidence)-β-D-fructopyranose sulfamate]
itching [1]: no itching at all
mood [1]: true stabilization of my mood
seizures [2]: effectively block seizures
time at which improvement continued to be maintained ([3]; Example 13): 12 weeks
lesions ([3]; Example 13, 45 mg in divided dosages, chobetesol propionate reduced): began to shrink, dried up and formed a scab, which came off leaving normal skin
time at which improvements continued to be maintained ([3]; Example 14): 20 weeks
lesions ([3]; Example 14, 30 mg twice a day): second lesion healing
lesions ([3]; Example 14, 45 mg per day, at three weeks): one lesion was shrinking
lesions ([3]; Example 14, 45 mg per day, by four weeks, immuran and prednisone reduced): healed and the second lesion was beginning to shrink
Ig antibody ([3]; Example 14, at 20 weeks): zero
efficacy in simple and complex partial seizures and secondarily generalized seizures [4]: effective as adjunctive therapy or as monotherapy
duration of beneficial effect ([5]; Example 1, 12.5 mg per day): more than 10 months
involuntary stretch rigid response ([5]; Example 1, 15 mg per day): stopped
spastic rigid response ([5]; Example 1, dose lowered to 12.5 mg per day): no longer present
involuntary stretch rigid response ([5]; Example 1, higher dose of 30 mg per day): reversed this benefit
walking and back pain ([5]; Example 18, 7.5 mg at bedtime for three days): walking better and reported reduced back pain
leg and foot cramps ([5]; Example 18, 15 mg at bedtime): disappeared
urinary incontinence and back pain [5, 9]: no urinary incontinence or back pain
walking [5, 9]: walking without a cane
patient-reported symptoms ([5]; Example 18, 30 mg at bedtime, seen eight days later): no dizziness, weakness, urinary incontinence and decreased gait problems, itching and pain
follow-up period with blood glucose remaining in that range [6]: 16 weeks
duration of benefit ([7]; Example 3): 15 weeks
mobility ([7]; Example 3, 25 mg, 3 times per day): increased mobility
pain (patient reported) ([7]; Example 3, 25 mg, 3 times per day, lortab and minocycline discontinued, prednisone and methotrexate reduced): significant decrease in pain
decrease in pain ([7]; Example 4, adolescent patient, 15 mg twice a day): 40-50%
reduction in pain ([7]; Example 4, adolescent patient, 45 mg per day): 70%
duration of benefits ([7]; Example 4, prednisone decreased to 0.5 mg/day): four
psoriasis ([7]; Example 17, 45 mg per day in divided doses): improvement in their psoriasis
joint pain in both hands, self-rating scale of 0 to 10 ([7]; Example 17, 45 mg per day in divided doses, decreased from 6): 2
getting out of bed ([8]; Example 5, 15 mg every morning and 30 mg every evening, after one month): able to more easily get out of bed
skin lesions and joint pain ([8]; Example 5, 15 mg twice per day): some improvement in skin lesions and decreased joint pain
duration of benefits ([8]; Example 5, 25 mg twice a day): more than five
pain ([8]; Example 5, 25 mg twice a day): minimal pain
duration of improvement ([8]; Example 6, 7.5 mg twice a day): more than ten
adverse effect [8, 10]: severe lethargy
middle knuckle swelling [8, 10]: significant reduction and almost total disappearance
course of improvement ([8]; Example 6, dose reduced to 7.5 mg twice a day): improvement continued
duration of benefits ([8]; Example 7, 25 mg, twice a day): five
pain and mobility ([8]; Example 7, 45 mg per day): significant decrease in pain and greater mobility
